# Measurements: patent US9661850B2, “Methods of soil pest control” (Syngenta Participations AG, priority 2012, dated 2017)
# Tests used:
# Type in all cases: in vivo
# [1] = test system: Diabrotica balteata (Corn Rootworm); assay: Diabrotica balteata seed treatment test, larval mortality; conditions: treated corn seeds, L3 larvae, 6 days incubation
# Procedure: Diabrotica Balteata (Corn Rootworm)
# Treated corn seeds are sown in a 350 ml pot filled with soil. Two weeks after sowing corn seedlings are infested with L3 larvae of Diabrotica balteata. After an incubation period of 6 days survived larvae are counted.
# [2] = test system: Agriotes sp. (Wireworms); assay: Agriotes sp. (wireworms) seed treatment test; conditions: treated corn seeds, 1 mg/seed, 14 days incubation
# Procedure: Treated corn seeds are sown in a 350 ml pot filled with soil. One week after sowing corn seedlings are infested with wireworms. After an incubation period of 14 days healthy and affected larvae (intoxicated, moribund, dead) are counted.
# [3] = test system: Agriotes sp. (Wireworms); assay: Agriotes sp. (wireworms) drench soil test with maize seedlings; conditions: 14 days after treatment
# Procedure: Plastic beakers are prepared with 100 ml drench soil. Afterwards 12.5 ml compound solution is mixed in each plastic beaker and three maize seedlings are added. At the same day five wireworms are placed into each plastic beaker and these are covered up with a lid. Fourteen days after treatment the number of dead and moribund wireworms are evaluated. Wireworms are assessed as moribund if they were not able to bury into the soil in one hour after having been put onto the soil surface.
# [4] = test system: Diabrotica balteata (Corn Rootworm); assay: Diabrotica balteata in-furrow application, plant damage on maize; conditions: L2 larvae, 6 days after infestation
# Procedure: (§1) Diabrotica Balteata (Corn Rootworm):
# (§2) Plastic boxes (17×27×22 cm) are filled with 8 L of drench soil and 6 maize seeds are sown into a furrow. 10 ml of spray solution are applied with a hand sprayer into the furrow on the planted seeds and the furrow is closed afterwards. Two weeks after sowing each box is infested with 15 Diabrotica balteata L2 larvae. 6 days after infestation the plant damage is assessed. Plants are considered as either damaged or healthy. Dead plants, plants with hollow stems or entry holes are considered as damaged. The test is carried out with five replicates (boxes) per treatment. For in-furrow application the control is replicated five times with the application of water.
# (§3) As six seeds are used per replicate, the total amount of active ingredient applied in furrow is six times the rate per seed in the seed treatment test.
# [5] = test system: Diabrotica balteata (Corn Rootworm); assay: Diabrotica balteata seed treatment, plant damage on maize; conditions: L2 larvae, 6 days after infestation
# Procedure: as §1, §2
# For the assessment as seed treatment 6 treated seeds are planted 0.5 cm deep into the soil. Exactly the same setup is used as with the in furrow treatment described above except that no spray solution is applied. For seed treatment the control is replicated five times without seed coating.
# as §3
Compound,% Larval mortality ([1]; 0.3 mg/seed),% Larval mortality ([1]; 1 mg/seed),other results
Cc1cc(C2=NOC(c3cc(Cl)c(Cl)c(Cl)c3)(C(F)(F)F)C2)ccc1C(=O)NC1CON(CC(F)(F)F)C1=O (mixture of isomers) [Compound A1],87%,,
Cc1cc(C2=NOC(c3cc(Cl)cc(Cl)c3)(C(F)(F)F)C2)ccc1C(=O)NC1CON(C)C1=O (mixture of isomers) [Compound A2],96%,,
CCN1OCC(NC(=O)c2ccc(C3=NOC(c4cc(Cl)c(F)c(Cl)c4)(C(F)(F)F)C3)cc2C)C1=O (mixture of isomers) [Compound A5],96%,,
Cc1cc(C2=NOC(c3cc(Cl)cc(Cl)c3)(C(F)(F)F)C2)ccc1C(=O)NC1CON(CC(F)F)C1=O (mixture of isomers) [Compound A6],87%,,
Cc1cc(C2=NOC(c3cc(Cl)cc(Cl)c3)(C(F)(F)F)C2)ccc1C(=O)NC1CON(CC(F)(F)F)C1=O (mixture of isomers) [Compound A8],79%,,% Mortality and moribund/intoxicated [2]: 100%
CCN1OCC(NC(=O)c2ccc(C3=NOC(c4cc(Cl)cc(Cl)c4)(C(F)(F)F)C3)cc2C)C1=O (mixture of isomers) [Compound A9],,,% Moribund & dead ([3]; application rate 0.8 ppm): 50%; % Moribund & dead ([3]; application rate 3 ppm): 75%; % Moribund & dead ([3]; application rate 12.5 ppm): 100%; % Mortality and moribund/intoxicated [2]: 25%
CCN1OCC(NC(=O)c2ccc(C3=NOC(c4cc(C(F)(F)F)c(Cl)c(C(F)(F)F)c4)(C(F)(F)F)C3)cc2C)C1=O (mixture of isomers) [Compound A15],100%,,
CCN1OCC(NC(=O)c2ccc(C3=NOC(c4cc(F)cc(Cl)c4)(C(F)(F)F)C3)cc2C)C1=O (mixture of isomers) [Compound A22],,92%,
CCN1OCC(NC(=O)c2ccc(C3=NOC(c4cc(Cl)c(Cl)c(Cl)c4)(C(F)(F)F)C3)cc2C)C1=O (mixture of isomers) [Compound A23],,100%,
CCN1OCC(NC(=O)c2ccc(C3=NCC(c4cc(Cl)c(Cl)c(Cl)c4)(C(F)(F)F)C3)cc2C)C1=O (racemic) [Compound C3],,100%,
Cc1cc(N2CCC(c3cc(Cl)cc(Cl)c3)(C(F)(F)F)C2)ccc1C(=O)NC1CON(CC(F)(F)F)C1=O (racemic) [Compound D1],83%,,
Cc1cc(C2=NO[C@@](c3cc(Cl)cc(Cl)c3)(C(F)(F)F)C2)ccc1C(=O)N[C@@H]1CON(CC(F)(F)F)C1=O [Compound 1],,,Reduction in plant damage compared to control (in-furrow application) ([4]; 0.1 mg AI per seed): 67%; Reduction in plant damage compared to control (in-furrow application) ([4]; 0.5 mg AI per seed): 95%; Reduction in plant damage compared to control (seed treatment) ([5]; 0.1 mg AI per seed): 25%; Reduction in plant damage compared to control (seed treatment) ([5]; 0.5 mg AI per seed): 50%
CCN1OC[C@@H](NC(=O)c2ccc(C3=NO[C@@](c4cc(Cl)c(F)c(Cl)c4)(C(F)(F)F)C3)cc2C)C1=O [Compound 2],,,Reduction in plant damage compared to control (in-furrow application) ([4]; 0.1 mg AI per seed): 95%; Reduction in plant damage compared to control (in-furrow application) ([4]; 0.5 mg AI per seed): 91%; Reduction in plant damage compared to control (seed treatment) ([5]; 0.1 mg AI per seed): 35%; Reduction in plant damage compared to control (seed treatment) ([5]; 0.5 mg AI per seed): 75%
CCN1OC[C@@H](NC(=O)c2ccc(C3=NO[C@@](c4cc(Cl)cc(Br)c4)(C(F)(F)F)C3)cc2C)C1=O [Compound A11],,100%,
CCN1OC[C@@H](NC(=O)c2ccc(C3=NO[C@@](c4cc(Cl)cc(C(F)(F)F)c4)(C(F)(F)F)C3)cc2C)C1=O [Compound A12],88%,,
Cc1cc(C2=NO[C@@](c3cc(Cl)cc(Cl)c3)(C(F)(F)F)C2)ccc1C(=O)N[C@@H]1CON(CC(F)F)C1=O [Compound A14],,100%,
Cc1cc(C2=NO[C@@](c3cc(Cl)cc(Cl)c3)(C(F)(F)F)C2)ccc1C(=O)N[C@@H]1CON(CC(F)(F)F)C1=O [Compound A16],,100%,% Moribund & dead ([3]; application rate 0.8 ppm): 100%; % Moribund & dead ([3]; application rate 3 ppm): 100%; % Moribund & dead ([3]; application rate 12.5 ppm): 100%; % Mortality and moribund/intoxicated [2]: 100%
CCN1OC[C@@H](NC(=O)c2ccc(C3=NO[C@@](c4cc(Cl)cc(Cl)c4)(C(F)(F)F)C3)cc2C)C1=O [Compound A17],,83%,% Moribund & dead ([3]; application rate 0.8 ppm): 100%; % Moribund & dead ([3]; application rate 3 ppm): 100%; % Moribund & dead ([3]; application rate 12.5 ppm): 100%; % Mortality and moribund/intoxicated [2]: 80%
CCN1OC[C@@H](NC(=O)c2ccc(C3=NO[C@@](c4cc(Cl)c(F)c(Cl)c4)(C(F)(F)F)C3)cc2C)C1=O [Compound A18],96%,,
CCN1OC[C@@H](NC(=O)c2ccc(C3=NO[C@@](c4cc(Cl)c(Cl)c(Cl)c4)(C(F)(F)F)C3)cc2C)C1=O [Compound A19],,100%,
Cc1cc(C2=NO[C@@](c3cc(Cl)c(F)c(Cl)c3)(C(F)(F)F)C2)ccc1C(=O)N[C@@H]1CON(CC(F)(F)F)C1=O [Compound A20],,100%,
Cc1cc(C2=NO[C@@](c3cc(Cl)c(Cl)c(Cl)c3)(C(F)(F)F)C2)ccc1C(=O)N[C@@H]1CON(CC(F)(F)F)C1=O [Compound A21],,100%,
Cc1cc(C2=NCC(c3cc(Cl)cc(Cl)c3)(C(F)(F)F)C2)ccc1C(=O)NC1CON(CC(F)(F)F)C1=O (stereo not drawn) [Compound C1],,100%,
CCN1OCC(NC(=O)c2ccc(C3=NCC(c4cc(Cl)cc(Cl)c4)(C(F)(F)F)C3)cc2C)C1=O (stereo not drawn) [Compound C2],,50%,
